Reference: patent publication US20170369807A1, “Ionic Liquid, Lubricant, and Magnetic Recording Medium” (Dexerials Corporation, priority 2016, published 2017)

Assays:
[1] = Measurement of thermal stability (TG/DTA); details: for Weight reduction temperature 5% / Weight reduction temperature 10% / Weight reduction temperature 20%: TG/DTA, 30° C. to 600° C., 10° C./min, air 200 mL/min; for thermal stability (in words): compared with Z-DOL and Z-TETRAOL
[2] = Solubility test to solvents (visual observation); details: ultrasonic waves 5 minutes, left 1 day, visually observed, listed as Example 3A, ammonium
Experimental: To a predetermined amount of Vertrel XF, n-hexane, or ethanol, the ionic liquid was added. Ultrasonic waves were applied to the resultant mixture for 5 minutes, followed by leaving the mixture to stand for 1 day. The solubility was visually observed.
After applying ultrasonic waves to the resultant for 5 minutes, the resultant was left to stand for 1 day. Thereafter, the solubility was visually observed and evaluated based on the following evaluation criteria.
Similarly, after applying ultrasonic waves to the resultant for 5 minutes, the resultant was left to stand for 1 day. Thereafter, the solubility was visually observed and evaluated based on the following evaluation criteria.
Note that, the solubility was visually observed, and it was judged as soluble when it was transparent. Moreover, it was judged as not soluble (insoluble) when it was opaque or insoluble components were observed.

[3] = in acetonitrile; cited from earlier work

For `CCCCCCCCCCCCCCCCCCN.O=S(=O)(NS(=O)(=O)C(F)(F)C(F)(F)C(F)(F)C(F)(F)F)C(F)(F)C(F)(F)C(F)(F)C(F)(F)F` [Comp. Ex. 2A, bis(nonafluorobutanesulfonyl)imide-octadecyl ammonium], which “Weight reduction temperature 5%” value [1] is on record?
The value was 311.8 °C.

What about the “Weight reduction temperature 10%” value [1] of the same compound?
Its value is 329.8 °C.

What about the “Weight reduction temperature 20%” value [1] of the same compound?
The value was 348.0 °C.

For `CCCCCCCCCCCCCCCCCCN.O=S1(=O)NS(=O)(=O)C(F)(F)C(F)(F)C1(F)F` [Comp. Ex. 3A, hexafluorocyclopropane-1,3-bis(sulfonyl)imide-octadecyl ammonium], which “Weight reduction temperature 5%” value [1] is on record?
Its value is 329.6 °C.

And the “Weight reduction temperature 10%” value [1]?
The value was 347.0 °C.

What about the “Weight reduction temperature 20%” value [1] of the same compound?
Its value is 365.1 °C.

What does the source list for `CCCCCCCCCCCCCCCCCCN(C)C.O=S(=O)(NS(=O)(=O)C(F)(F)C(F)(F)C(F)(F)C(F)(F)F)C(F)(F)C(F)(F)C(F)(F)C(F)(F)F` [Ex. 1A, bis(nonafluorobutanesulfonyl)imide-N,N-dimethyl-octadecyl ammonium]?
Weight reduction temperature 5% [1]: 315.7 °C; Weight reduction temperature 10% [1]: 337.0 °C; Weight reduction temperature 20% [1]: 356.7 °C

Which results are given for `CCCCCCCCCCCCN(CCCCCCCCCCCC)CCCCCCCCCCCC` [Ex. 3A, trifluoromethanesulfonic acid-N,N,N-tridodecyl ammonium]?
Solubility Fluorine-based solvent ([2]; Vertrel XF [CF3(CHF)2CF2CF3], 25° C.): ≥ 0.2 % by mass; Solubility Ethanol ([2]; ethanol): ≥ 0.5 % by mass; Solubility n-Hexane ([2]; n-hexane, 25° C.): ≥ 0.5 % by mass; thermal stability improved compared with Z-DOL ([1]; compared with Z-DOL (Comparative Example 7C)): ≥ 120 °C; thermal stability improved compared with Z-TETRAOL ([1]; compared with Z-TETRAOL (Comparative Example 8C)): ≥ 45 °C

With `O=S(=O)(NS(=O)(=O)C(F)(F)C(F)(F)C(F)(F)C(F)(F)F)C(F)(F)C(F)(F)C(F)(F)C(F)(F)F` [bis(nonafluorobutanesulfonyl)imide] as the compound, how does the pKa [3] read?
The pKa was 0.0.

With `O=S1(=O)NS(=O)(=O)C(F)(F)C(F)(F)C1(F)F` [hexafluorocyclopropane-1,3-bis(sulfonyl)imide] as the compound, how does the pKa [3] read?
The pKa was −0.8.

For `O=[N+]([O-])O` [nitric acid], which pKa [3] is on record?
Its pKa is 9.4.

For `O=S(=O)(O)C(F)(F)C(F)(F)C(F)(F)C(F)(F)F` [nonafluorobutanesulfonic acid], which pKa [3] is on record?
The pKa was 0.7.

Which pKa [3] does the source give for `O=C(O)C(F)(F)C(F)(F)C(F)(F)C(F)(F)C(F)(F)C(F)(F)C(F)(F)F` [pentadecafluorooctanoic acid] here?
Its pKa is 12.7.

With `F[B-](F)(F)F.[H+]` [tetrafluoroboric acid] as the compound, how does the pKa [3] read?
Its pKa is 1.8.

For `O=S(=O)(O)C(F)(F)F` [trifluoromethanesulfonic acid], which pKa [3] is on record?
Its pKa is 0.7.

For “bis(nonafluorobutanesulfonyl)imide-N,N-dimethyl-dodecyl ammonium [Ex. 2A]”, which “Weight reduction temperature 5%” value [1] is on record?
The value was 308.5 °C.

What about the “Weight reduction temperature 10%” value [1] of the same compound?
The value was 331.5 °C.

What about the “Weight reduction temperature 20%” value [1] of the same compound?
The value was 353.4 °C.

What does the source list for “nonafluorobutanesulfonic acid-N-methyloctadecyl ammonium [Comp. Ex. 4A]”?
Weight reduction temperature 5% [1]: 346.8 °C; Weight reduction temperature 10% [1]: 364.0 °C; Weight reduction temperature 20% [1]: 381.1 °C; thermal stability (in words) [1]: high

Which “Weight reduction temperature 5%” value [1] does the source give for “nonafluorobutanesulfonic acid-octadecyl ammonium [Comp. Ex. 1A]” here?
Its value is 338.8 °C.

What about the “Weight reduction temperature 10%” value [1] of the same compound?
The value was 355.2 °C.

And the “Weight reduction temperature 20%” value [1]?
The value was 370.4 °C.

And the “thermal stability (in words)” value [1]?
Its value is “high”.

For “nonafluorobutanesulfonic acid-trimethyloctadecyl ammonium [Comp. Ex. 5A]”, which “Weight reduction temperature 5%” value [1] is on record?
The value was 340.5 °C.

And the “Weight reduction temperature 10%” value [1]?
The value was 356.2 °C.

And the “Weight reduction temperature 20%” value [1]?
Its value is 371.9 °C.

What about the “thermal stability (in words)” value [1] of the same compound?
Its value is “high”.

Which “Weight reduction temperature 5%” value [1] does the source give for “pentadecafluorooctanoic acid octadecyl ammonium [Comp. Ex. 6A]” here?
Its value is 206.9 °C.

And the “Weight reduction temperature 10%” value [1]?
The value was 215.8 °C.

What about the “Weight reduction temperature 20%” value [1] of the same compound?
Its value is 223.4 °C.

What about the “thermal stability (in words)” value [1] of the same compound?
The value was “lacked thermal stability”.

Which pKa [3] does the source give for perfluorocyclopropane sulfoimide here?
The pKa was −0.8.
